Laboratory results from the supplement of paper PMC10307832.

Legend:
Assay in all cases: relative viability (nuclei count vs DMSO), 5 days (fraction); higher = more cells survive
[1] = compound: CN(C)CC1=CC(=CC=C1)N=C(C2=CC=CC=C2)C3=C(NC4=C3C=CC(=C4)C(=O)N(C)C)O + CC(C)C[C@H](NC(=O)[C@H](Cc1ccccc1)NC(=O)c1cnccn1)B(O)O [Bortezomib] (partner 0.002 µM)
How it was run: (§1)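 For relative viability, nuclei counts in treated wells were divided by those in vehicle wells. Lung cancer cell lines had been pin-tool dosed in 1536-well plates the day after seeding and cultured for 5 days, then fixed and stained in one step (final 0.05% Triton X-100, 1% formaldehyde, 1 ug/ml Hoechst) and imaged at 4×. Doses were one drug alone or a fixed anchor-drug dose plus five library-drug doses (not always all listed) in √10 steps, and values are duplicate-plate medians.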

[2] = compound: CN(C)CC1=CC(=CC=C1)N=C(C2=CC=CC=C2)C3=C(NC4=C3C=CC(=C4)C(=O)N(C)C)O + Cc1nc(NC(=O)N2CCC[C@H]2C(N)=O)sc1-c1ccnc(C(C)(C)C(F)(F)F)c1 [Alpelisib] (partner 2 µM)
How it was run: as §1

[3] = compound: CN(C)CC1=CC(=CC=C1)N=C(C2=CC=CC=C2)C3=C(NC4=C3C=CC(=C4)C(=O)N(C)C)O + Nc1nc2[nH]cc(CCc3ccc(C(=O)N[C@@H](CCC(=O)O)C(=O)O)cc3)c2c(=O)[nH]1 [Pemetrexed] (partner 0.2 µM)
How it was run: as §1

[4] = compound: CN(C)CC1=CC(=CC=C1)N=C(C2=CC=CC=C2)C3=C(NC4=C3C=CC(=C4)C(=O)N(C)C)O + O=C(c1cc(Cc2n[nH]c(=O)c3ccccc23)ccc1F)N1CCN(C(=O)C2CC2)CC1 [Olaparib] (partner 8 µM)
How it was run: as §1

| Cell Line | relative viability ([1]; first compound 0.08 µM) | relative viability ([1]; first compound 0.253 µM) | relative viability ([1]; first compound 0.8 µM) | relative viability ([1]; first compound 2.53 µM) | relative viability ([1]; first compound 8 µM) | relative viability ([2]; first compound 0.08 µM) | relative viability ([2]; first compound 0.253 µM) | relative viability ([2]; first compound 0.8 µM) | relative viability ([2]; first compound 2.53 µM) | relative viability ([2]; first compound 8 µM) | relative viability ([3]; first compound 0.08 µM) | relative viability ([3]; first compound 0.253 µM) | relative viability ([3]; first compound 0.8 µM) | relative viability ([3]; first compound 2.53 µM) | relative viability ([3]; first compound 8 µM) | relative viability ([4]; first compound 0.08 µM) | relative viability ([4]; first compound 0.253 µM) | relative viability ([4]; first compound 0.8 µM) | relative viability ([4]; first compound 2.53 µM) | relative viability ([4]; first compound 8 µM) |
| --- | --- | --- | --- | --- | --- | --- | --- | --- | --- | --- | --- | --- | --- | --- | --- | --- | --- | --- | --- | --- |
| NCI-H1915 | 0.976 | 1.02 | 0.985 | 0.923 | 0.956 | 1.12 | 1.05 | 1.11 | 1.05 | 1.02 | 0.51 | 0.446 | 0.629 | 0.513 | 0.417 | 0.257 | 0.271 | 0.249 | 0.249 | 0.251 |
| NCI-H1975 | 0.444 | 0.381 | 0.319 | 0.326 | 0.381 | 0.632 | 0.646 | 0.545 | 0.553 | 0.471 | 0.292 | 0.327 | 0.287 | 0.301 | 0.31 | 0.773 | 0.829 | 0.815 | 0.755 | 0.754 |
| NCI-H1993 | 1.04 | 1.11 | 0.748 | 1.22 | 1.36 | 0.83 | 0.671 | 0.622 | 0.694 | 0.732 | 0.684 | 0.576 |  | 0.495 | 0.634 | 0.772 | 1.1 |  | 1.12 | 1.06 |
| NCI-H2009 | 1.17 | 1.01 | 1.21 | 0.919 | 0.839 | 1.15 | 1.11 | 1.1 | 1.04 | 1.05 | 0.982 | 0.993 | 1.08 | 1.03 | 0.957 | 0.726 | 0.722 | 0.732 | 0.649 | 0.669 |
| NCI-H2023 | 1.3 | 1.05 | 0.901 | 0.647 | 0.731 | 0.555 | 0.685 | 0.553 | 0.442 | 0.451 | 0.228 | 0.251 | 0.238 | 0.19 | 0.246 | 0.539 | 0.525 | 0.473 | 0.416 | 0.414 |
| NCI-H2085 | 1.07 | 0.953 | 0.993 | 1.01 | 1.07 | 1.03 | 0.973 | 1.05 | 0.949 | 1.06 | 0.87 | 0.948 | 0.832 | 0.908 | 0.901 | 0.793 | 0.777 | 0.776 | 0.725 | 0.816 |
| NCI-H2087 | 0.656 | 0.785 | 0.986 | 0.816 | 1.03 | 1.14 | 1.24 | 1.15 | 1.15 | 0.992 | 0.629 | 0.644 | 0.617 | 0.721 | 0.68 | 0.571 | 0.507 | 0.41 | 0.536 | 0.537 |
| NCI-H2126 | 1.14 | 1.08 | 1.13 | 1.07 | 1.1 | 0.806 | 0.784 | 0.751 | 0.762 | 0.779 | 0.677 | 0.706 | 0.708 | 0.639 | 0.626 | 0.885 | 0.87 | 0.907 | 0.912 | 0.957 |
| NCI-H2228 | 1.09 | 1.15 | 1.11 | 0.779 | 0.94 | 0.452 | 0.753 | 0.859 | 0.687 | 0.588 | 0.312 | 0.36 | 0.339 | 0.33 | 0.353 | 0.781 | 0.542 | 0.623 | 0.689 | 0.557 |
| NCI-H2347 | 0.828 | 1.22 | 0.83 | 1.17 | 1.12 | 1.02 | 0.983 | 1.07 | 1.08 | 1.04 | 0.405 | 0.461 | 0.418 | 0.42 | 0.43 | 0.536 | 0.584 | 0.593 | 0.572 | 0.575 |
| NCI-H2405 | 0.976 | 1.02 | 0.976 | 0.954 | 0.951 | 0.87 | 0.713 | 0.889 | 0.721 | 0.654 | 1.2 | 1.07 | 0.936 | 1.08 | 0.828 | 0.888 | 0.896 | 0.935 | 0.753 | 0.757 |
| NCI-H3122 | 0.984 | 0.99 | 1.06 | 0.959 | 0.98 | 0.679 | 0.81 | 0.813 | 0.732 | 0.792 | 0.19 | 0.207 | 0.196 | 0.191 | 0.186 | 0.587 | 0.587 | 0.678 | 0.59 | 0.721 |
| PC-3 [JPC-3] | 0.856 | 0.826 | 0.759 | 0.886 | 0.866 | 1.02 | 0.976 | 1.04 | 1.01 | 1.02 | 1.08 | 1.04 | 0.665 | 1.08 | 1.28 | 1.12 | 1.05 | 1.01 | 1.12 | 1.11 |
| PC-14 | 0.989 | 0.839 | 0.89 | 0.767 | 1.06 | 0.92 | 0.865 | 0.962 | 0.924 | 0.837 | 0.13 | 0.13 | 0.147 | 0.15 | 0.135 | 0.325 | 0.212 | 0.23 | 0.294 | 0.312 |
